# Data reported in patent publication US9745297B2, “Compounds as modulators of RORC” (Boehringer Ingelheim International GmbH, priority 2013, dated 2017).
# Biological target: T1, RORγt (Homo sapiens, UniProt P51449)
# T1 construct: expressed in transfected cells
# T1 sequence (P51449 269-508 limits assumed): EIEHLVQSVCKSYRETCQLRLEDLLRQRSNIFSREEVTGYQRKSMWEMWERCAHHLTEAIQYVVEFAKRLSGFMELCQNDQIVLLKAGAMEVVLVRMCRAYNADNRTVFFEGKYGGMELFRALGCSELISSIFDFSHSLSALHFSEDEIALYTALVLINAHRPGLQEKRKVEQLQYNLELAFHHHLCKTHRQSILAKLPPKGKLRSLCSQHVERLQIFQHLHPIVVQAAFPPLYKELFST
# Assay: RGA Assay: nuclear receptor transactivation assay, RORγt transactivation of a luciferase reporter
# Type: cell-based
# Conditions: transiently transfected HEK 293 cells (pGL4.3 luc2P/GAL4UAS, pBIND Gal4DBD hRORC LBD), 20-24 hours incubation, luciferase readout
# Protocol: A nuclear receptor transactivation assay was performed to quantitate the ability of test compounds to inhibit RORγt transactivation of a luciferase reporter. A similar assay is described in: Khan et al., Bioorganic & Medicinal Chemistry Letters 23 (2013), 532-536. The system uses transiently transfected HEK 293 cells cotransfected with two plasmids (pGL4.3, luc2P/GAL4UAS/Hygro, and pBIND, Ga14DBD hRORC LBD1-3). The positive control is co-transiently transfected with both plasmids, and the negative control contains the pGL4.3 promoter sequence. Assays were assembled in 384 well plates where transiently transfected cells and test compound at varying concentrations were incubated for 20-24 hours. The next day, assays plates are taken out and equillibrated at RT for 20-30 minutes. Bright-Glo™ Luciferase Assay System is used to detect Luciferase production. After addition of Bright GLO detection reagent, the plates were incubated at RT for 20 minutes. The plates were read on an Envision plate reader to measure luminescence signal. The RLU signal is converted to POC relative to control and blank wells.
# Compound Dilution Buffer:
# Bright Glo Luciferase Assay System: Promega #E2620
# Thaw lysis buffer provided in kit, add 100 mL lysis buffer to substrate powder.
row,SMILES,IC50 [µM]
1,Cc1cc(F)ccc1-c1cc2c(cn1)N(C(=O)NCc1ccc(S(C)(=O)=O)cc1)CC2(C)C [Example 89],> 30
2,CNS(=O)(=O)c1ccc(CNC(=O)N2CC(C)(C)c3nc(-c4cncnc4C(C)C)ccc32)cc1 [Example 45],9.1
3,COc1ccc(-c2ccc3c(n2)C(C)(C)CN3C(=O)NCc2ccc(C#N)cc2)c(C(F)(F)F)c1 [Example 4],12
4,COc1cc(C)c(-c2ccc3c(n2)C(C)(C)CN3C(=O)NCc2ccc(S(C)(=O)=O)cc2)cn1 [Example 19],10
5,CCS(=O)(=O)N1CCC(CNC(=O)N2CC3(CCCC3)c3nc(-c4c(OC)ncnc4C4CC4)ccc32)CC1 [Example 76],15
6,CNS(=O)(=O)c1ccc(CNC(=O)N2CC(C)(C)c3nc(-c4c(OC)ncnc4C4CC4)ccc32)cc1 [Example 78],2.4
7,CNS(=O)(=O)c1ccc(CNC(=O)N2CC(C)(C)c3nc(-c4cnc(OC)cc4C)ccc32)cc1 [Example 44],18
8,CS(=O)(=O)c1ccc(CNC(=O)N2CC3(CCCC3)c3nc(Oc4ccc(C(F)(F)F)nc4)ccc32)cc1 [Example 59],> 30
9,CCC1(C)CN(C(=O)NCc2ccc(S(=O)(=O)CC)cc2)c2ccc(-c3cncnc3C(C)C)nc21 (centres unmarked) [Example 72],2.8
10,Cc1cc(F)ccc1-c1ccc2c(n1)C(C)(C)CN2C(=O)NCc1ccc(S(C)(=O)=O)cc1 [Example 22],> 30
11,Cc1cc(O)ccc1-c1ccc2c(n1)C(C)(C)CN2C(=O)NCc1ccc(S(C)(=O)=O)cc1 [Example 21],12
12,COc1ncnc(C2CC2)c1-c1ccc2c(n1)C(C)(C)CN2C(=O)NCc1ccc(S(C)(=O)=O)cc1 [Example 77],4
13,CCS(=O)(=O)c1ccc(CNC(=O)N2CC3(CCCC3)c3nc(-c4cc(CN5CC[C@@H](O)C5)ccc4C4CC4)ccc32)cc1 [Example 82],7
14,CC1(C)CN(C(=O)NCc2ccc(S(C)(=O)=O)cc2)c2ccc(Oc3ccc(F)c(OC(F)(F)F)c3)nc21 [Example 48],6.6
15,COCCOc1cc(C#N)ccc1CNC(=O)N1CC2(CCCC2)c2nc(-c3cncnc3C(C)C)ccc21 [Example 34],11
16,CCc1ncnc(C2CC2)c1-c1ccc2c(n1)C1(CCCC1)CN2C(=O)NCc1ccc(S(=O)(=O)CC)cn1 [Example 101],0.42
17,Cc1cc(O)ccc1-c1cc2c(cn1)N(C(=O)NCc1ccc(S(C)(=O)=O)cc1)CC2(C)C [Example 91],> 30
18,Cc1cc(O)ccc1-c1ccc2c(n1)C(C)(C)CN2C(=O)NCc1ccc(C#N)cc1 [Example 2],> 30
19,COc1ccc(-c2cc3c(cn2)N(C(=O)NCc2ccc(S(C)(=O)=O)cc2)CC3(C)C)c(C(F)(F)F)c1 [Example 87],3.9

# Results, then the molecule that gave them:
row,IC50 [µM],SMILES
1,> 30,Cc1nc(N2CCOCC2)ccc1-c1ccc2c(n1)C1(CCCC1)CN2C(=O)NCc1ccc(S(C)(=O)=O)cc1 [Example 5]
2,5.2,CCS(=O)(=O)c1ccc(CNC(=O)N2CC3(CCCC3)c3nc(-c4cnc(OC)cc4C)ccc32)cc1 [Example 13]
3,0.22,CCc1ncnc(C2CC2)c1-c1ccc2c(n1)C1(CCCC1)CN2C(=O)NCc1ccc(S(=O)(=O)CC)cc1 [Example 100]
4,> 30,CCS(=O)(=O)c1ccc(CNC(=O)N2CC3(CCCC3)c3nc(-c4c(C)n[nH]c4C)ccc32)cc1 [Example 31]
5,0.65,COc1ncnc(C2CC2)c1-c1ccc2c(n1)C1(CCCC1)CN2C(=O)NCc1ccc(S(C)(=O)=O)cc1 [Example 66]
6,8.6,Cc1cc(F)ccc1-c1ccc2c(n1)C1(CCCC1)CN2C(=O)NCc1ccc(S(C)(=O)=O)cc1 [Example 50]
7,2.1,CCS(=O)(=O)c1ccc(CNC(=O)N2CC3(CCCC3)c3nc(-c4cncnc4C(F)(F)F)ccc32)cc1 [Example 35]
8,1.1,CCOc1ncnc(C2CC2)c1-c1ccc2c(n1)C1(CCCC1)CN2C(=O)NCc1ccc(S(C)(=O)=O)cc1 [Example 69]
9,> 30,CS(=O)(=O)c1ccc(CNC(=O)N2CC3(CCCC3)c3nc(Cl)ccc32)cc1 [Example 62]
10,16,CCS(=O)(=O)c1ccc(CNC(=O)N2CC3(CCCC3)c3nc(-c4c(C)nn(C)c4C)ccc32)cc1 [Example 36]
11,0.48,CCS(=O)(=O)c1ccc(CNC(=O)N2CC3(CCCC3)c3nc(-c4ccc(O)cc4C)ccc32)cc1 [Example 15]
12,> 30,CCS(=O)(=O)c1ccc(CNC(=O)N2CC3(CCCC3)c3nc(-c4nnccc4C(F)(F)F)ccc32)cc1 [Example 39]
13,5.2,CNS(=O)(=O)c1ccc(CNC(=O)N2CC3(CCCC3)c3nc(-c4cnc(OC)cc4C)ccc32)cc1 [Example 57]
14,18,CS(=O)(=O)c1ccc(CNC(=O)N2CC3(CCCC3)c3nc(-c4cnc(C#N)nc4C4CC4)ccc32)cc1 [Example 65]
15,1.6,CCS(=O)(=O)c1ccc(CNC(=O)N2CC3(CCCC3)c3nc(-c4ncc(N(C)C)nc4C4CC4)ccc32)cc1 [Example 40]
16,0.31,CCS(=O)(=O)c1ccc(CNC(=O)N2CC3(CCCC3)c3nc(-c4c(OC)ncnc4C(F)(F)F)ccc32)cc1 [Example 74]
17,> 30,CCS(=O)(=O)c1ccc(CNC(=O)N2CC3(CCCC3)c3nc(-c4ncc(C)nc4C)ccc32)cc1 [Example 37]
18,7.6,CNS(=O)(=O)c1ccc(CNC(=O)N2CC3(CCCC3)c3nc(Oc4cnc(C)cc4C)ccc32)cc1 [Example 61]
19,> 30,CNC(=O)c1ccc(-c2ccc3c(n2)C2(CCCC2)CN3C(=O)NCc2ccc(S(C)(=O)=O)cc2)c(C)c1 [Example 8]
